Laboratory results as given in patent US6011174A, “Cyclic amic acid derivatives” (Banyu Pharmaceutical Co., Ltd., priority 1996, dated 2000).

Columns and labels:
[1] = molecular target: T1, protein-farnesyl transferase (PFT) (Rattus norvegicus, UniProt Q02293+Q04631); assay: Inhibitory activities against protein-farnesyl transferase (PFT); format: biochemical; conditions: PFT from rat brain; prenyl acceptor H-ras protein or biotin-added Lys-Thr-Ser-Cys-Val-Ile-Met; 37° C., 20 minutes; read-out: 50% inhibitory concentrations against PFT activities, IC50
T1 construct: soluble fraction of rat's brain; from tissue; host or cells: rat brain, soluble fraction, 30%-50% ammonium sulfate cut, Q-Sepharose fraction

[2] = system: farnesyl-modification of Ras protein in NIH3T3 cells transformed by activated ras gene; assay: Inhibitory activities against farnesyl-modification of Ras protein in NIH3T3 cells transformed by activated ras gene; format: cell-based; conditions: Mus musculus, 24 hours, read-out: 50% inhibitory concentrations against farnesyl-modification of Ras protein, IC50
Method: Using the compounds of the present invention, inhibitory activities against farnesyl-modification of Ras protein in NIH3T3 cells transformed by activated ras gene, were measured.
The NIH3T3 cells transformed by activated ras gene, were seeded on a culture plate and cultured for 3 days. Then, a compound of the preset invention in a predetermined concentration was added to the culture. In accordance with the method disclosed in J. Biol. Chem., vol. […] The cell extract was subjected to SDS polyacrylamide gel electrophoresis to separate farnesyl-modified Ras protein and non-farnesyl-modified Ras protein. The protein on the gel was transferred onto a nitrocellulose membrane, and an anti-Ras protein antibody was reacted as a probe (primary antibody reaction). An anti-primary antibody, a peroxidase inclusion (secondary antibody), was reacted, and then Ras protein was detected by a chemical fluorescence enhancing kit. The proportion of non-farnesyl-modified Ras protein was quantified by a densitometer and taken as the inhibitory activity.

[3] = system: NIH3T3 Cells Transformed by Activated Ras Gene (NIH/ras); assay: Antitumor effect against NIH/ras cells in nude mice, subcutaneous (tumor volume); format: in vivo, nude mouse; conditions: for Growth inhibition (tumor volume): once a day days 1-10, day 8; for Volume of tumor, Average ± standard deviation: once a day days 1-10, measured day 8, ** 1% (u test)
Method: (§1) ^1) Tumor inoculation: 10^6 cells were inoculated subcutaneously
(§2) to a female nude mouse.
^2 Dose: Each dose was subcutaneously administered once a day from th
first day to the tenth day after the inoculation of the cells.
^3) Volume of tumor: On the eighth day after inoculation of the cells
volume of the tumors were measured.
^4) Growth inhibition: (1(average volume of tumor of the treated
group/average volume of tumor of the control group)) × 100

[4] = system: NIH3T3 Cells Transformed by Activated Ras Gene (NIH/ras); assay: Antitumor effect against NIH/ras cells in nude mice, intraperitoneal (tumor weight); format: in vivo, nude mouse; conditions: for Growth inhibition (tumor weight): once a day days 1-6, day 7; for Weight of tumor, Average ± standard deviation: once a day days 1-6, weighed day 7
Description: Pharmacological Test Example 3 (Therapeutic Effects to NIH3T3 Cells Transformed by Activated Ras Gene (NIH/ras))
as §1, §2
^2) Dose: Each dose was intraperitonealy administered once a day from
the first day to the sixth day after the inoculation of the cells,.
^3) Weight of tumor: On the seventh day after inoculation of the
cells, the tumors were weighed.
^4) Growth inhibition: (1(average weight of tumor of the treated
group/average weight of tumor of the control group)) × 100
* and **: Statistical analyses by utest are 5% and 1%, respectively.

[5] = 10 mg/kg/injection subcutaneous
[6] = 20 mg/kg/injection subcutaneous
[7] = 40 mg/kg/injection subcutaneous

| SMILES | IC50 [1] | IC50 [2] | also measured |
| --- | --- | --- | --- |
| CC(C(CCc1ccccc1)c1ccc(Oc2ccccc2)c(O)c1)N(CC(=O)O)C(=O)[C@@H]1COC(C(=O)O)(C(=O)O)O1 (single isomer, unassigned) [Example 32] | 0.2 nM | 590 nM | – |
| C[C@H]([C@H](CCc1ccccc1)c1ccc(Oc2ccccc2)cc1)N(CC(=O)O)C(=O)[C@@H]1OC(C(=O)O)(C(=O)O)O[C@H]1C(=O)O [Example 21, (4R,5R)-4-[N-(carboxymethyl)-N-{(1R,2R)-1-methyl-2-(4-phenoxyphenyl)-4-phenylbutyl}carbamoyl]-1,3-dioxolane-2,2,5-tricarboxylic acid] | 0.098 nM | 2100 nM | – |
| C[C@H]([C@H](CCc1ccccc1)c1ccc(Oc2ccccc2)cc1)N(CC(=O)O)C(=O)[C@H]1OC(C(=O)O)(C(=O)O)O[C@@H]1C(=O)O [Example 22, (4S,5S)-4-[N-(carboxymethyl)-N-{(1R,2R)-1-methyl-2-(4-phenoxyphenyl)-4-phenylbutyl}carbamoyl]-1,3-dioxolane-2,2,5-tricarboxylic acid] | 0.095 nM | 1900 nM | Growth inhibition (tumor volume) [3, 5]: 75%; Volume of tumor, Average ± standard deviation [3, 5]: 0.164 ± 0.073 cm^3; Growth inhibition (tumor volume) [3, 6]: 92%; Volume of tumor, Average ± standard deviation [3, 6]: 0.052 ± 0.030 cm^3; Growth inhibition (tumor volume) [3, 7]: 99%; Volume of tumor, Average ± standard deviation [3, 7]: 0.010 ± 0.009 cm^3 |
| COc1cc(C(CCc2ccccc2)C(C)N(CC(=O)O)C(=O)[C@@H]2COC(C(=O)O)(C(=O)O)O2)ccc1Oc1ccccc1 (single isomer, unassigned) [Example 31] | 0.22 nM | 550 nM | – |

Further molecules by falling IC50 [1], results first:

| IC50 [1] | SMILES | IC50 [2] | also measured |
| --- | --- | --- | --- |
| 0.16 nM | C[C@H]([C@H](CCc1ccccc1)c1ccc(Oc2ccccc2)cc1)N(CC(=O)O)C(=O)[C@@H]1COC(C(=O)O)(C(=O)O)O1 [Example 9, (4S)-4-[N-(carboxymethyl)-N-{(1R,2R)-1-methyl-2-(4-phenoxyphenyl)-4-phenylbutyl}carbamoyl]-1,3-dioxolane-2,2-dicarboxylic acid] | 240 nM | Growth inhibition (tumor weight) ([4]; 20 mg/kg/injection intraperitoneal): 67%; Weight of tumor, Average ± standard deviation ([4]; 20 mg/kg/injection intraperitoneal, * 5% (u test)): 0.024 ± 0.018 g; Growth inhibition (tumor weight) ([4]; 40 mg/kg/injection intraperitoneal): 80%; Weight of tumor, Average ± standard deviation ([4]; 40 mg/kg/injection intraperitoneal, ** 1% (u test)): 0.015 ± 0.013 g; Growth inhibition (tumor weight) ([4]; 80 mg/kg/injection intraperitoneal): 90%; Weight of tumor, Average ± standard deviation ([4]; 80 mg/kg/injection intraperitoneal, ** 1% (u test)): 0.008 ± 0.006 g; Growth inhibition (tumor weight) ([4]; 160 mg/kg/injection intraperitoneal): 98%; Weight of tumor, Average ± standard deviation ([4]; 160 mg/kg/injection intraperitoneal, ** 1% (u test)): 0.002 ± 0.001 g |
| 0.085 nM | C[C@H]([C@H](CCc1ccccc1)c1ccc(Oc2ccccc2)cc1)N(CC(=O)O)C(=O)[C@@H]1OC(C(=O)O)(C(=O)O)O[C@@H]1C(=O)O (relative stereo) [Example 23 (4R*, 5S*)-isomer, (4R*,5S*)-4-[N-(carboxymethyl)-N-{(1R,2R)-1-methyl-2-(4-phenoxyphenyl)-4-phenylbutyl}carbamoyl]-1,3-dioxolane-2,2,5-tricarboxylic acid] | 2100 nM | – |
| 0.075 nM | C[C@H]([C@H](CCc1ccccc1)c1ccc(Oc2ccccc2)cc1)N(CC(=O)O)C(=O)[C@H]1OC(C(=O)O)(C(=O)O)O[C@H]1C(=O)O (relative stereo) [Example 23 (4S*, 5R*)-isomer, (4S*,5R*)-4-[N-(carboxymethyl)-N-{(1R,2R)-1-methyl-2-(4-phenoxyphenyl)-4-phenylbutyl}carbamoyl]-1,3-dioxolane-2,2,5-tricarboxylic acid] | 2000 nM | – |
